Biological target: T1, progesterone receptor (Oryctolagus cuniculus, UniProt P06186)
T1 construct: 'Rabbit, progesterone = 100%; from tissue; host or cells: Rabbit; From own knowledge, the cited Philibert procedure uses uterine cytosol
T1 sequence (P06186 1-930): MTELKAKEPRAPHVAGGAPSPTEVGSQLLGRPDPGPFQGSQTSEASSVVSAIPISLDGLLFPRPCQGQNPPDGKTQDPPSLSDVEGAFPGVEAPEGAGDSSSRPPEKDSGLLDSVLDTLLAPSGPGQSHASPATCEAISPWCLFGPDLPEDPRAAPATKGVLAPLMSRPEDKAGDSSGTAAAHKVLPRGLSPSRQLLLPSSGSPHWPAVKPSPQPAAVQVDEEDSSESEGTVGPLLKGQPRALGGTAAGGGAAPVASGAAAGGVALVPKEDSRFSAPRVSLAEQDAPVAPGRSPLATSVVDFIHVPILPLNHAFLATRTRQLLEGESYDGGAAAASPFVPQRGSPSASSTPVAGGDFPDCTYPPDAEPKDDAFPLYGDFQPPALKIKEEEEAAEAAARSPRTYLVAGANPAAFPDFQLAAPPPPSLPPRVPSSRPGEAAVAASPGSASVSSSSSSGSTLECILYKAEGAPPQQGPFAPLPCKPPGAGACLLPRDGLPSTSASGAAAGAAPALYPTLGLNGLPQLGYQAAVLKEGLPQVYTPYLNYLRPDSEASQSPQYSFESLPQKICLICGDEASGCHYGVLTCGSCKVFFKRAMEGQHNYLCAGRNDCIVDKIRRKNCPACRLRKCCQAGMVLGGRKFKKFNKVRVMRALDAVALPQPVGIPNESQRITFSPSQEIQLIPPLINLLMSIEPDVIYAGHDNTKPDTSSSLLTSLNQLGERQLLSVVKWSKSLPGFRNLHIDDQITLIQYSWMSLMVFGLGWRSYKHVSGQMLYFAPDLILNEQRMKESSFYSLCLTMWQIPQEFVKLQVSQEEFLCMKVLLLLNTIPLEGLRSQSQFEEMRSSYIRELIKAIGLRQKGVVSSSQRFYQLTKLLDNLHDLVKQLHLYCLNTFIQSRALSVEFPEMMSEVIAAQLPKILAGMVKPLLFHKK
Assay: progesterone receptor relative binding affinity (procedure of Philibert et al.)
Details: Rabbit, progesterone = 100%
Text: Biological information in the form of progesterone receptor relative binding affinity data determined according to the procedure of D. Philibert et al, Endocrinology 101, 1850 (1977) set forth in TABLE 1 discloses the 11β-difluoromethyl and (E)-11-fluoromethylene steroids to be useful as progestins.
'Rabbit, progesterone = 100%

Row | SMILES | Relative Binding Affinity' (%)
1 | CC#C[C@]1(O)CC[C@H]2[C@H]3[C@H]([C@@H](C(F)F)C[C@@]21C)[C@H]1CCC(=O)C=C1C[C@H]3C [11β-Difluoromethyl-17β-hydroxy-7α-methyl-17α-propynylestr-4-en-3-one] | 41%
2 | CC#C[C@]1(O)CC[C@H]2[C@@H]3CCC4=CCCC[C@@H]4[C@H]3[C@@H](C(F)F)C[C@@]21C [11β-Difluoromethyl-17β-hydroxy-17α-propynylestr-4-ene] | 3%
3 | C#C[C@]1(O)CC[C@H]2[C@H]3[C@H]([C@@H](C(F)F)C[C@@]21C)[C@H]1CCC(=O)C=C1C[C@H]3C [17α-Ethynyl-11β-difluoromethyl-17β-hydroxy-7α-methylestr-4-en-3-one] | 63%
4 | C#CC1(OC(C)=O)CCC2C3CCC4=CC(=O)CCC4C3C(C(F)F)CC21C (stereo not drawn) [17α-Ethynyl-11β-difluoromethyl-17β-hydroxyestr-4-en-3-one 17-acetate] | 50%
5 | C#CC1(OC)CCC2C3CCC4=CC(=O)CCC4C3C(C(F)F)CC21C (stereo not drawn) [17α-Ethynyl-11β-difluoromethyl-17β-hydroxyestr-4-en-3-one 17-methyl ether] | 145%
6 | C[C@]12C[C@H](C(F)F)[C@H]3[C@@H](CCC4=CC(=O)CC[C@@H]43)[C@@H]1CC[C@@H]2O [11β-Difluoromethyl-17β-hydroxyestr-4-en-3-one] | 13%
7 | C#C[C@]1(O)CC[C@H]2[C@@H]3CCC4=CC(=O)CC[C@@H]4[C@H]3/C(=C/F)C[C@@]21C [17α-Ethynyl-(E)-11-fluoromethylene-17β-hydroxyestr-4-en-3-one] | 74%
8 | CC#C[C@]1(O)CC[C@H]2[C@@H]3CCC4=CC(=O)CC[C@@H]4[C@H]3/C(=C\F)C[C@@]21CC [13β-Ethyl-(Z)-11-fluoromethylene-17β-hydroxy-17α-propynylgon-4-en-3-one] | 149%
9 | C#C[C@]1(O)CC[C@H]2[C@@H]3CCC4=CCCC[C@@H]4[C@H]3[C@@H](C(F)F)C[C@@]21C [17α-Ethynyl-11β-difluoromethyl-17β-hydroxyestr-4-ene] | 2%
10 | CC#C[C@]1(O)CC[C@H]2[C@@H]3CCC4=CC(=O)CC[C@@H]4[C@H]3/C(=C\F)C[C@@]21C [(Z)-11-Fluoromethylene-17β-hydroxy-17-propynylestr-4-en-3-one] | 150%
11 | C#C[C@]1(O)CC[C@H]2[C@@H]3CCC4=CC(=O)CC[C@@H]4[C@H]3/C(=C\F)C[C@@]21C [17α-Ethynyl-(Z)-11-fluoromethylene-17β-hydroxyestr-4-en-3-one] | 149%
12 | CC#C[C@]1(O)CC[C@H]2[C@@H]3CCC4=CC(=O)CC[C@@H]4[C@H]3/C(=C/F)C[C@@]21CC [13β-Ethyl-(E)-11-fluoromethylene-17β-hydroxy-17α-propynylgon-4-en-3-one] | 63%
13 | CC#C[C@]1(O)CC[C@H]2[C@@H]3CCC4=CC(=O)CC[C@@H]4[C@H]3[C@@H](C(F)F)C[C@@]21C [11β-Difluoromethyl-17β-hydroxy-17α-propynylestr-4-en-3-one] | 68%
14 | C#C[C@]1(O)CC[C@H]2[C@@H]3CCC4=CC(=O)CC[C@@H]4[C@H]3/C(=C/F)C[C@@]21CC [13β-Ethyl-17α-ethynyl-(E)-11-fluoromethylene-17β-hydroxygon-4-en-3-one] | 100%
15 | CC#CC1(OC)CCC2C3CCC4=CC(=O)CCC4C3C(=CF)CC21C (stereo not drawn) [(E)-11-Fluoromethylene-17β-hydroxy-17α-propynylestr-4-en-3-one 17-methyl ether] | 71%
16 | CC#C[C@]1(O)CC[C@H]2[C@@H]3CCC4C=CCC[C@@H]4[C@H]3[C@@H](C(F)F)C[C@@]21C (stereo partly drawn) [11β-Difluoromethyl-17β-hydroxy-17α-propynylestr-3-ene] | 2%
17 | C#C[C@]1(O)CC[C@H]2[C@H]3[C@H](/C(=C/F)C[C@@]21C)[C@H]1CCC(=O)C=C1C[C@H]3C [17α-Ethynyl-(E)-11-fluoromethylene-17β-hydroxy-7α-methylestr-4-en-3-one] | 34%
18 | C#CC1(O)CCC2C3CCC4=CC5(CCC4C3C(C(F)F)CC21C)SCCS5 (stereo not drawn) [17α-Ethynyl-11β-difluoromethyl-17β-hydroxyestr-4-ene-3-one 3-ethanedithiol ketal] | 92%
19 | CO[C@H]1CC[C@H]2[C@@H]3CCC4=CC(=O)CC[C@@H]4[C@H]3[C@@H](C(F)F)C[C@]12C [11β-Difluoromethyl-17β-hydroxyestr-4-en-3-one 17-methyl ether] | 66%
20 | CC#C[C@]1(O)CC[C@H]2[C@@H]3CCC4=CC(=O)CC[C@@H]4[C@H]3/C(=C/F)C[C@@]21C [(E)-11-fluoromethylene-17β-hydroxy-17α-propynylestr-4-ene-3-one] | 18%
21 | CC#CC1(OC(C)=O)CCC2C3CCC4=CC(=O)CCC4C3C(C(F)F)CC21C (stereo not drawn) [11β-Difluoromethyl-17β-hydroxy-17α-propynylestr-4-en-3-one 17-acetate] | 49%
22 | CC#CC1(OC)CCC2C3CCC4=CC(=O)CCC4C3C(C(F)F)CC21C (stereo not drawn) [11β-Difluoromethyl-17β-hydroxy-17α-propynylestr-4-en-3-one 17-methyl ether] | 90%
23 | CC#C[C@]1(O)CC[C@H]2[C@H]3[C@H](/C(=C/F)C[C@@]21C)[C@H]1CCC(=O)C=C1C[C@H]3C [(E)-11-Fluoromethylene-17β-hydroxy-7α-methyl-17α-propynylestr-4-en-3-one] | 58%

Source: patent EP0145493A2, “11-Difluoromethyl and 11-fluoromethylene steroids” (THE UPJOHN COMPANY, priority 1983, dated 1985)
